Legend:
[1] = tested on: Mtb in J774 cells; test: Mtb growth in J774 macrophage-like cells (mKO fluorescence); format: cell-based, Mycobacterium tuberculosis
Summary of the method: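 J774 cells infected with log-phase mKO-expressing Mtb (OD600=0.2 suspension), compounds dosed from 20 μM final in two-fold dilutions to 0.039 μM, or single 10 μM in 96-well format; 37° C., 5% CO2, 6 days. mKO fluorescence read, growth expressed as percent of DMSO control.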

[2] = tested on: Mtb in bone marrow-derived macrophages (BMDMs); test: Mtb growth in primary murine bone marrow-derived macrophages (CFU); format: cell-based, Mycobacterium tuberculosis; settings: 10 μM; added 2 hrs post-infection; eight-day time-course
Experimental: C57BL/6J wild type mice (Jackson Laboratories) were used for extraction of bone marrow-derived macrophages. Cells were harvested and expanded in DMEM containing 10% FBS, 15% L-cell conditioned media, 2 mM L-glutamine, 1 mM sodium pyruvate, and penicillin/streptomycin as needed in a 37° C. incubator in a 5% CO2 atmosphere. […] Macrophages were lysed with water containing 0.01% sodium dodecyl sulfate and a dilution series of the samples plated on 7H10 agar for CFU determination.

[3] = Mouse pharmacokinetics, single oral dose; format: in vivo, CD-1 mice
Experimental: Blood samples were collected in K2EDTA coated tubes pre-dose, 0.5, 1, 3 and 5 hrs post-dose, placed on ice, and centrifuged to recover plasma. The recovered plasma was kept at −80° C. as needed prior to analysis, which was performed as previously described (Wang et al, 2020). In brief, a Sciex Applied Biosystems Qtrap 4000 triple-quadrupole mass spectrometer coupled to an Agilent 1260 HPLC system was used for HPLC coupled to tandem mass spectrometry (LC-MS/MS) quantitative analysis of the samples, with chromatography attained using an Agilent Zorbax SB-C8 column (2.1×30 mm; particle size, 3.5 μm) and a reverse phase gradient elution. The aqueous mobile phase consisted of Milli-Q deionized water with 0.1% formic acid (A), while the organic mobile phase was 0.1% formic acid in acetonitrile (B). The gradient set-up was as follows: 5-90% B over 2 mins, 1 min at 90% B, then an immediate drop to 5% B and an additional 1 min at 5% B. Quantification of molecules was carried out via multiple-reaction monitoring of parent/daughter transitions in electrospray positive-ionization mode, and sample analyses accepted if quality control and standard samples had concentrations within 20% of the nominal concentration. Preparation of compounds for generation of standard curves and quality control spiking solutions were performed as previously described (Wang et al, 2020). Data were processed using Analyst software (Version 1.6.2; Applied Biosystems Sciex).

[4] = tested on: Vero cells; test: Vero cell toxicity assay; format: cell-based, African green monkey; settings: 72 h
Experimental: Vero cells (African green monkey kidney epithelial cells; ATCC CCL-81) were maintained in DMEM+10% FBS. For the cell toxicity assay, Vero cells were plated at 1×10^5 cells/well in a 96-well plate and incubated for 2-3 h to allow cells to settle. The test compound was dissolved in DMSO at a final concentration of 12 mg/ml. The test compound solution was then added to plated cells, resulting in final test concentrations of 50 to 0.78 μg/ml, with each concentration tested at least in duplicate. To evaluate […] cell viability, 20 μl of a 1:20 MTS:PMS reagent (Promega CellTiter 96 AQueous non-radioactive cell proliferation assay kit) was added to each well after 72 h of incubation at 37° C. and the plate then incubated for an additional 3 h. Absorbance at 490 nm was read on a Molecular Devices SpectraMax M5 microplate reader. The CC50 (the minimal amount of compound that inhibited Vero cell growth by 50%) was extrapolated by plotting absorbance at 490 nm versus the […].

[5] = tested on: Mtb-infected J774 cells; settings: 10 μM for 24 h; 5 days post-infection

CCSc1ncc(CN2CCN(c3nc4ccccc4o3)CC2)cn1 [Compound C6, 2-(4-((2-(ethylthio)pyrimidin-5-yl)methyl)piperazin-1-yl)benzo[d]oxazole]
% Reduction of Intracellular Infection (J774.1 cells) at 10 μM cmpd ([1]; 10 μM compound, J774.1 cells): 54.2 ± 2.6% | Mtb growth in J774 cells (in words) ([1]; 10 μM, 6 days post-infection): Mtb growth inhibition | inhibition at 10 µM ([1]; Mycobacterium tuberculosis, J774CELLS, J774, 144 h, read-out: % inhibition compared to Rif in J774 at 10 μM): 40.5 ± 0.6% | inhibition at 20 µM ([1]; Mycobacterium tuberculosis, J774CELLS, J774, 144 h, read-out: % inhibition compared to Rif in J774 at 20 μM): 53.6 ± 2.7% | Inhibition of Mtb growth in J774 cells phenotype ([1]; compared to C6): Y | Mtb bacterial load / growth in primary murine BMDM (in words) [2]: significant decrease in bacterial load | Kp at 5 h ([3]; female, CD-1, mouse, single 25 mg/kg po dose, 5 h, lung vs plasma, read-out: Mouse PK Clung/Cplasma at t = 5 h): 0.88 | AUC0-5 h ([3]; single 5 mg/kg oral (po) dose, plasma, CD-1 mice (n=2)): 5481 ng·h/mL | Mouse PK AUC0-5h ([3]; single 25 mg/kg po dose, plasma, CD-1 mice): 25713 ng·h/mL | CC50 (minimum compound concentration to inhibit cell growth by 50%) [4]: > 50 µg/mL | accumulation in Mtb-infected J774 cells [5]: trend of greater C6 accumulation in the Mtb-infected J774 cells than uninfected J774 cells
